{
  "source": "patent US20230241014A1",
  "about": "“MEK-INHIBITORS FOR THE TREATMENT OR PREVENTION OF CORONAVIRUS INFECTIONS AND/OR COVID-19 CYTOKINE STORM” (priority 2020, published 2023)",
  "key": {"SARS-CoV-2 [1]": {"tested_on": "SARS-CoV-2", "assay": "SARS-CoV-2 Syrian hamster infection model", "conditions": "for reduction of progeny virus in throat swabs (TCID50): 100 mg/kg then 75 mg/kg once daily oral; for reduction of progeny virus in throat swabs (TCID50) / reduction of viral load in throat swabs (PCR): day 3 p.i.; for tolerability, weight loss, adverse effects: compared to vehicle"}, "MCP-1": {"tested_on": "MCP-1", "assay": "MCP-1 in SARS-CoV-2 infected CaCo2 cells", "format": "cell-based, Homo sapiens", "conditions": "high amount necessary"}, "Calu-3 cells": {"tested_on": "Calu-3 cells", "assay": "Cytotoxicity evaluation in Calu-3 cells", "format": "cell-based, Homo sapiens", "conditions": "Calu-3, 72 h treatment", "experimental": "In a next step, Calu-3 cells were incubated with increasing amounts of ATR-002 over 24, 48 or 72 hours. Specifically, Calu-3 cells were infected with SARS-CoV-2 (FI) using a MOI of 0.01. 1 h.p.i. cells were treated with ATR-002. Mock, SARS-CoV-2 and DMSO served as controls. […] Untreated (SARS-CoV-2) and DMSO (0.1%) treated cells served as negative controls. […] DMSO was used as reference. […] Data in combination with (C) was used to calculate the CC50 value and the selectivity index (SI)."}, "ACE2": {"tested_on": "ACE2", "assay": "ACE2 expression in Calu-3 cells (immunofluorescence microscopy, WES)", "format": "cell-based, Homo sapiens", "conditions": "100 μM, 24 h", "experimental": "After this, it was tested whether ACE2 expression is reduced in cells after ATR-002 treatment. Calu-3 cells were treated with ATR-002 for 24 hours and the results were analysed via immunofluorescence microscopy and WES technology. Specifically, Calu-3 cells were seeded on glass cover slips in 24-well plates, 1×10^5 cells per well and incubated for 48 h at 37° C., 5% CO2 After washing the cells with medium (IMDM with 10% FBS and 1% P/S), 1 mL of 100 μM ATR-002 in medium or 1 mL 1% DMSO in medium (solvent control) were added to the wells and incubated for 24 h at 37° C., 5% CO2.\nThen the wells were washed once with PBS and fixed with 300 μL/well 4% PFA in PBS for 10 minutes at room temperature. […] The slides were let dry at 4° C. in the dark and then analysed using a confocal laser scanning microscope (LSM800, Zeiss)."}, "SARS-CoV-2 (FI)": {"tested_on": "SARS-CoV-2 (FI)", "format": "cell-based"}, "[2]": {"tested_on": "peripheral blood mononuclear cells (PBMC's)", "assay": "T-Cell Inflammation Inhibition Assay (ConA Stimulation)", "format": "cell-based, human", "conditions": "ATR-002 100, 50, 25 μM, Dexamethasone 100 nM, 24 h"}, "[3]": {"tested_on": "peripheral blood mononuclear cells (PBMC's)", "assay": "T-cell Inflammation Inhibition Assay (Anti-CD3 Stimulation)", "format": "cell-based, human", "conditions": "ATR-002 100, 50, 25 μM, Dexamethasone 100 nM, 24 h"}, "[4]": {"tested_on": "IL-6, IL-8, MCP-1, IP-10 and CCL5 mRNA", "assay": "Pro-inflammatory cytokine mRNA in SARS-CoV-2 infected Calu-3 cells (real-time PCR)", "format": "cell-based, Homo sapiens", "conditions": "Calu-3, SARS-CoV-2 (FI) MOI 0.01, increasing amounts"}, "[5]": {"tested_on": "SARS-CoV-2 viral gene RdRP", "format": "cell-based", "conditions": "Vero cells, MOI 0.01, 50 μM, 24, 36 and 48 hpi"}, "LPS induced PMBC cells": {"tested_on": "LPS induced PMBC cells", "assay": "LPS induced cytokine expression in PBMC", "format": "cell-based, human", "conditions": "10 μg/ml", "source_text": "In order to check what concentration of ATR-002 would be necessary for cytokine reduction, the amounts of IP10, TNF-alpha and MCP-1 expression was studied in LPS induced PMBC cells after ATR-002 treatment."}, "SARS-CoV-2 [6]": {"tested_on": "SARS-CoV-2", "format": "cell-based", "conditions": "Caco-2, Vero E6, Calu-3; MOI 0.01; 100, 75, 50 μM; 24 h"}, "[7]": {"tested_on": "cytokine & chemokine gene expression in lungs", "assay": "Acute lung injury (ALI) mouse model, LPS induced cytokine and chemokine gene expression", "format": "in vivo", "conditions": "LPS 5 mg/kg i.p.; 25 mg/kg i.p. 1 h post stimulation; 6 h post treatment"}, "[8]": {"conditions": "human, in vivo", "experimental": "Specifically, as described previously, in Phase I clinical studies PD-0184264 was administered with a starting dose of 100 mg and up to three escalation steps in seven arms, following a single ascending dose/multiple ascending dose (SAD/MAD) regime. Administration scheme was one dose PD-0184264, escalating 100 mg to 900 mg (SAD), followed by seven doses PD-0184264, escalating 100 mg to 600 mg QD over seven days (MAD)."}, "[9]": {"tested_on": "peripheral blood mononuclear cells (PBMC's)", "assay": "T-Cell Inflammation Inhibition Assay (PHA Stimulation)", "format": "cell-based, human", "conditions": "ATR-002 100, 50, 25 μM, Dexamethasone 100 nM, 24 h"}, "[10]": {"conditions": "treatment start 4 hours p.i., day 4 p.i."}, "[11]": {"conditions": "treatment start 24 hours p.i., day 4 p.i."}},
  "note": "Where two headings read alike, the source gives them in different places.",
  "data": [
    {"smiles": "O=C(O)c1ccc(F)c(F)c1Nc1ccc(I)cc1Cl", "note": "[ATR-002, 2-(2-chloro-4-iodophenylamino)-N-3,4-difluoro benzoic acid]", "values": [
      {"measurement": "reduction of progeny virus in throat swabs (TCID50)", "setting": "SARS-CoV-2 [1]; treatment start 4 hours p.i.", "value": 1.1, "unit": "log 10"},
      {"measurement": "tolerability, weight loss, adverse effects", "setting": "SARS-CoV-2 [1]; treatment start 4 hours p.i.", "value": "well tolerated without significant weight loss"},
      {"measurement": "reduction of viral load in throat swabs (PCR)", "setting": "SARS-CoV-2 [1]; treatment start 4 hours p.i.", "value": 1.1, "unit": "log 10"},
      {"measurement": "affected lung tissue (lung lesions, estimated percentage)", "setting": "SARS-CoV-2 [1]; [10]", "value": "significantly reduced affected lung tissue"},
      {"measurement": "reduction in infectious virus titers (TCID50/g tissue) in the nasal turbinates", "setting": "SARS-CoV-2 [1]; [10]", "value": 1.3, "unit": "log 10"},
      {"measurement": "reduction of viral load in the nasal turbinates (PCR)", "setting": "SARS-CoV-2 [1]; [10]", "value": 1.1, "unit": "log 10"},
      {"measurement": "reduction of progeny virus in throat swabs (TCID50)", "setting": "SARS-CoV-2 [1]; treatment start 24 hours p.i.", "value": 1.3, "unit": "log 10"},
      {"measurement": "tolerability, weight loss, adverse effects", "setting": "SARS-CoV-2 [1]; treatment start 24 hours p.i.", "value": "well tolerated without significant weight loss"},
      {"measurement": "reduction of viral load in throat swabs (PCR)", "setting": "SARS-CoV-2 [1]; treatment start 24 hours p.i.", "value": 1.2, "unit": "log 10"},
      {"measurement": "affected lung tissue (lung lesions, estimated percentage)", "setting": "SARS-CoV-2 [1]; [11]", "value": "significantly reduced affected lung tissue"},
      {"measurement": "infectious virus titers in the nasal turbinates", "setting": "SARS-CoV-2 [1]; [11]", "value": "not the treatment started 24 hours p.i., significantly reduced infectious virus titers"},
      {"measurement": "MCP-1 expression", "setting": "MCP-1", "value": "able to reduce MCP-1 expression"},
      {"measurement": "cytotoxicity at antiviral concentrations", "setting": "Calu-3 cells", "value": "non-toxic concentration range"},
      {"measurement": "ACE2 on Calu-3 cells", "setting": "ACE2", "value": "reduction of ACE2"},
      {"measurement": "production of progeny viral particles", "setting": "SARS-CoV-2 (FI); A549-ACE2/TMPRSS2, MOI 0.001, 100 μM", "value": "reduced the production of progeny viral particles"},
      {"measurement": "production of progeny viral particles", "setting": "SARS-CoV-2 (FI); A549-ACE2/TMPRSS2, MOI 0.01, 100 μM", "value": "did not affect the production of progeny viral particles"},
      {"measurement": "production of progeny viral particles", "setting": "SARS-CoV-2 (FI); Calu-3, MOI 0.001, 100 μM", "value": "reduced the production of progeny viral particles"},
      {"measurement": "inhibition of cytokine/chemokine stimulation (summary)", "setting": "[2]", "value": "significant, dose dependent inhibition"},
      {"measurement": "inhibition of cytokine/chemokine stimulation (summary)", "setting": "[3]", "value": "significant, dose dependent inhibition"},
      {"measurement": "expression of pro-inflammatory cytokines (IL-6, IL-8, MCP-1, IP-10, CCL5 mRNA)", "setting": "[4]", "value": "reduce the expression of pro-inflammatory cytokines"},
      {"measurement": "SARS-CoV-2 viral gene RdRP genome copies", "setting": "[5]", "value": "confirmed"},
      {"measurement": "IP10 expression", "setting": "LPS induced PMBC cells; LPS induced PBMC", "value": "reduced"},
      {"measurement": "TNF-alpha expression", "setting": "LPS induced PMBC cells; LPS induced PBMC", "value": "reduced"},
      {"measurement": "inhibition at 10 µg/mL", "setting": "LPS induced PMBC cells; PBMC, human PBMCs, read-out: inhibition of LPS induced MCP-1", "value": "> 90", "unit": "%"},
      {"measurement": "virus titer via RT-qPCR, effect across cell types", "setting": "SARS-CoV-2 [6]", "value": "effect seen on all cell types was comparable"},
      {"measurement": "IL-1beta gene expression in lung", "setting": "[7]", "value": "decrease"},
      {"measurement": "IL-8 gene expression in lung", "setting": "[7]", "value": "decrease"},
      {"measurement": "IP-10 gene expression in lung", "setting": "[7]", "value": "decrease"},
      {"measurement": "MCP-1 gene expression in lung", "setting": "[7]", "value": "decrease"},
      {"measurement": "MIP-1beta gene expression in lung", "setting": "[7]", "value": "decrease"},
      {"measurement": "TNF-alpha gene expression in lung", "setting": "[7]", "value": "decrease"},
      {"measurement": "pharmacokinetic profile", "setting": "[8]", "value": "supports the intended once-daily regime"},
      {"measurement": "pharmacokinetics exposure, blood levels", "setting": "[8]", "value": "maintenance of clinically relevant blood levels"},
      {"measurement": "safety of each dose cohort (Safety Review Committee)", "setting": "[8]", "value": "considered to be safe"},
      {"measurement": "inhibition of cytokine/chemokine stimulation (summary)", "setting": "[9]", "value": "significant, dose dependent inhibition"}
    ]}
  ]
}
